Measured values reported in article PMC6214143, “Oncotoxic Properties of Serotonin Transporter Inhibitors and 5-HT1A Receptor Ligands” (International Journal of Molecular Sciences, 2018).
Where a name gives a salt, the structure may show the parent alone.

Experiments:
[1] = design: method as in PMID 7705455; settings: rats, s.c.; cited from earlier work
PC-3 cells [2] = assay: MTT cell survival assay, PC-3 cells; type: cell-based, human; settings: PC-3 cells
Experimental: (§1) The effects of the test compounds on the survival of PC-3, SH-SY5Y, Balb/c 3T3 and HEK293 cells was measured with the aid of the 3-(4,5-dimethylthiazol-2-yl)-2,5-diphenyltetrazolium bromide (MTT) assay. The cells were cultured in 96-well plates (100 μL/well) for 72 h. The optimized initial densities were the following: for PC-3—60,000 cells/mL, SH-SY5Y and Balb/c 3T3—50,000 cells/mL.
(§2) After 20 h preincubation and evaluation of the uniformity of cell growth, the medium was aspirated, and the respective solutions of the substances were added to the culture medium. Control cells were only treated the solvent used for the compounds and medium alone.
(§3) MTT (3-(4,5-dimethylthiazol-2-yl)-2,5-diphenyltetrazolium bromide) is reduced by intracellular dehydrogenase, which is present only in live cells (mitochondria), to purple, water-insoluble formazan. After it is dissolved, formazan absorbance of the resulting solution is directly proportional to the number of living cells in culture.
(§4) After appropriate incubation, the culture medium was removed. Next, 50 μL of MTT solution (0.5 mg/mL) diluted in PBS to 0.5 mg/mL was added to each well. […] Then, the precipitated formazan was dissolved by the addition of 200 μL isopropanol. […] The plates were sealed to reduce evaporation before incubation. The test was performed in three to five independent experiments with four times the measured concentration tested. The cell survival percentage was determined as % of controls, which were cells treated with the test compound solvent at the highest concentration.

SH-SY5Y cells = assay: MTT cell survival assay, SH-SY5Y cells; type: cell-based, human; settings: SH-SY5Y cells
Experimental: as §1, §2, §3, §4

Balb/c 3T3 cells = assay: MTT cell survival assay, Balb/c 3T3 cells (normal reference); type: cell-based, murine; settings: Mus musculus, BALB/c3T3, 72 h
Experimental: as §1, §2, §3
After appropriate incubation, the culture medium was removed. Next, 50 μL of MTT solution (0.5 mg/mL) diluted in PBS to 0.5 mg/mL was added to each well. The plates were incubated for 3 h at 37 °C. Then, the precipitated formazan was dissolved by the addition of 200 μL isopropanol. After a 24-hour incubation at 4 °C in the dark, the absorbance of the dissolved formazan was measured at 570 nm (the maximum absorption of formazan) and at 690 nm (reference wavelength) using a Power Wave XS microplate spectrophotometer (Bio-Tek, Winooski, VT, USA). The plates were sealed to reduce evaporation before incubation. The test was performed in three to five independent experiments with four times the measured concentration tested. The cell survival percentage was determined as % of controls, which were cells treated with the test compound solvent at the highest concentration.

5-HT1A receptor [3] = molecular target: T1, 5-HT1A receptor (Homo sapiens, UniProt P08908); assay: cAMP level (HTRF) in HEK293 cells that overexpress the 5-HT1AR gene; type: cell-based; settings: agonist mode, 1 µM forskolin-stimulated HEK293-5-HT1A cells
T1 construct: EGFP; expressed in transfected cells
T1 sequence (P08908 1-422): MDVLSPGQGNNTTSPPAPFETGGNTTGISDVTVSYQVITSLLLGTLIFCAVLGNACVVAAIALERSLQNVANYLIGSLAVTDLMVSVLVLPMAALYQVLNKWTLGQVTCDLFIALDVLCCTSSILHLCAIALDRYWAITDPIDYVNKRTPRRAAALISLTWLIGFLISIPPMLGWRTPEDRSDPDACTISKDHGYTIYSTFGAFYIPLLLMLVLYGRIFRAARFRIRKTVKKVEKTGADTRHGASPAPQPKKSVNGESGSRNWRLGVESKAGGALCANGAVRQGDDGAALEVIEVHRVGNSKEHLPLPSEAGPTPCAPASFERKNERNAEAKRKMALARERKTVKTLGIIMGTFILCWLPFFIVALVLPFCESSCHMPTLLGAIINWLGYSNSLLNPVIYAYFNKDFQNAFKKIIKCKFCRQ
Experimental: (§5) The examination of the functional activity read out as cAMP level inhibition and ERK1/2 and Akt1 phosphorylation was performed according to the instructions of the One-plate Cisbio Bioassays cAMP dynamic 2, phospho-ERK (Thr202/Tyr204) and Akt1 phospho- S473 Cellular Assay Kits respectively, using a HEK293 human fibroblast cell line that overexpresses 5-HT1A receptors. […] The cAMP levels in PC-3 cells were determined using 600,000 cells/mL. Receptor activation with the appropriate ligands was carried out for 30 min, and then the cells were lysed. The results were analyzed with GraphPad Prism v 6.0 (GraphPad Software, San Diego, CA, USA) using its in-built functions. Ligand activity was determined using a 4-parameter equation of the dose-response function. […] M.
(§6) All compounds were tested with both agonists and antagonists. To test the response of cAMP to an agonist the cells were activated with forskolin (1 µM) followed by agonist addition. […] Data are an average of minimum three independent experiments in duplicate. The control of specific activity was measured under the same conditions on cells lacking the 5-HT1A receptor. The results were expressed as % of the reference agonist activity. In the antagonist mode 100% of the reference agonist activity (EC80) corresponded to 0% antagonist activity.

5-HT1A receptor [4] = molecular target: T1, 5-HT1A receptor; assay: ERK1/2 phosphorylation (HTRF) in HEK293 cells that overexpress the 5-HT1AR gene; type: cell-based; settings: HEK293-5-HT1A cells
Experimental: as §5, §6

Akt pathway = assay: pAkt level (Akt1 phospho-S473 HTRF) in HEK293 cells that overexpress the 5-HT1AR gene; type: cell-based; settings: Homo sapiens
Experimental: (§7) The examination of the functional activity read out as cAMP level inhibition and ERK1/2 and Akt1 phosphorylation was performed according to the instructions of the One-plate Cisbio Bioassays cAMP dynamic 2, phospho-ERK (Thr202/Tyr204) and Akt1 phospho- S473 Cellular Assay Kits respectively, using a HEK293 human fibroblast cell line that overexpresses 5-HT1A receptors. The measurements were performed in 384-well microtiter plates using 200,000, 1,875,000 or 2,000,000 cells/mL. The cAMP levels in PC-3 cells were determined using 600,000 cells/mL. Receptor activation with the appropriate ligands was carried out for 30 min, and then the cells were lysed. The results were analyzed with GraphPad Prism v 6.0 (GraphPad Software, San Diego, CA, USA) using its in-built functions. Ligand activity was determined using a 4-parameter equation of the dose-response function. The response curves were obtained by plotting the HTRF® ratio (signal ratio 665/620 nm × 10,000) relative to the log concentration of the [compound] M.

PC-3 cells [5] = assay: cAMP level in PC-3 prostate cancer cells; type: cell-based; settings: Homo sapiens, 1 µM forskolin
Experimental: as §7

5-HT1A receptor [6] = settings: cited from earlier work
dopamine D2 receptor = settings: cited from earlier work
[7] = WAY100635 (5 µM), spiperone (5 µM)

Q: With CCCN(CCC)[C@@H]1CCc2cccc(O)c2C1 [Compound 8-OH-DPAT, (2R)-(+)-8-Hydroxy-2-(di-n-propylamino)tetralin hydrobromide] as the compound, how does the “minimal effective dose (MED), reduction of immobility” value [1] read?
A: 0.63 mg/kg

Q: What does the source list for COc1ccc2cccc(N3CCN(CCNC(=O)c4ccc(F)cc4)CC3)c2c1.Cl [Compound S14506, 4-Fluoro-N-[2-[4-(7-methoxy-1-naphthalenyl)-1-piperazinyl]ethyl]benzamide hydrochloride, reference compound]?
A: IC50 (PC-3 cells [2]; Homo sapiens, MTT, 72 h): 9980 ± 1260 nM; cytotoxic activity in the presence of WAY100635 and spiperone (PC-3 cells [2]; [7]): reversed; IC50 (SH-SY5Y cells; Homo sapiens, MTT, 72 h): 4270 ± 410 nM; cytotoxic activity in the presence of WAY100635 and spiperone (SH-SY5Y cells; [7]): not against neuroblastoma SH-SY5Y cells; IC50 (Balb/c 3T3 cells): 20600 ± 2580 nM; EC50 (5-HT1A receptor [3]): 0.0254 nM; EC50 (5-HT1A receptor [4]; agonist mode, read-out: ERK1/2 EC50): 0.062 nM; EC50 (5-HT1A receptor [4]; elevating phosphorylated ERK1/2 levels, read-out: MAPK/ERK1/2 pathway agonist EC50): 0.093 nM; IC50 (Akt pathway): 15400 nM; EC50 (PC-3 cells [5]): 320 nM; IC50 (PC-3 cells [5]; read-out: cAMP biochemical pathway IC50): 320 nM; Kd (5-HT1A receptor [6]): 0.79 ± 0.2 nM; dopamine D2 receptor properties (dopamine D2 receptor): dopamine D2 receptor antagonist
